Drawing on PubChem BioAssay AID214 (DTP/NCI, 2004), this text covers T/C for 22 compounds.

The assay has as its system B6C3F1 mice, colon carcinoma 38 s.c., T/C. Put plainly: NCI In Vivo Anticancer Drug Screen. Data for tumor model Colon Carcinoma 38 (subcutaneous) in B6C3F1 mice. To be noted: higher = larger tumour. How it is done:
The antitumor activity of compounds was measured in mice bearing transplantable tumors. Survival or tumor size were measured and the results are expressed as the measurement made in the treated group (T) divided by the measurement made in the vehicle treated control group (C). The tumor model used in this assay is Colon Carcinoma 38 (subcutaneous) in B6C3F1 mice

[1] abbreviates: endpoint: median tumor weight (est.), dose: 100.0 mg/kg/injection, schedule: Q07DX002 (ip), vehicle: saline with Tween-80.
Where [2] appears, read: endpoint: median tumor weight (est.), dose: 200.0 mg/kg/injection, schedule: Q07DX002 (ip), vehicle: saline with Tween-80.
Setting [3] is: endpoint: median tumor weight (est.), dose: 50.0 mg/kg/injection, schedule: Q07DX002 (ip), vehicle: Klucel (hydroxypropylcellulose) (HPC).
Where [4] appears, read: endpoint: median tumor weight (est.), dose: 100.0 mg/kg/injection, schedule: Q07DX002 (ip), vehicle: Klucel (hydroxypropylcellulose) (HPC).
The mark [5] stands for this setting: endpoint: median tumor weight (est.), dose: 200.0 mg/kg/injection, schedule: Q07DX002 (ip), vehicle: Klucel (hydroxypropylcellulose) (HPC).
The mark [6] stands for this setting: endpoint: median tumor weight (est.), dose: 400.0 mg/kg/injection, schedule: Q07DX002 (ip), vehicle: Klucel (hydroxypropylcellulose) (HPC).
Where [7] appears, read: endpoint: median tumor weight (est.), dose: 400.0 mg/kg/injection, schedule: Q07DX002 (ip), vehicle: saline with Tween-80.
Where [8] appears, read: endpoint: median tumor weight (est.), dose: 50.0 mg/kg/injection, schedule: Q07DX002 (ip), vehicle: suspension in saline.
Setting [9] is: endpoint: median tumor weight (est.), dose: 100.0 mg/kg/injection, schedule: Q07DX002 (ip), vehicle: suspension in saline.

The structures appear in SMILES notation. Where “and” joins values, the source holds several entries; their conditions need not be identical. Identical values can stand only once. Results filed as inconclusive are left out.

As for `CO[C@H]1C[C@](C)(O)Cc2cc3c(c(O)c21)C(=O)c1c(O)cc2c(c1C3=O)O[C@@H]1O[C@@]2(C)[C@H](O)[C@@H](N(C)C)[C@@H]1O`, the T/C by setting is: (endpoint: median tumor weight (est.), dose: 12.5 mg/kg/injection, schedule: Q07DX002 (ip), vehicle: other) 124 % of control; (endpoint: median tumor weight (est.), dose: 25.0 mg/kg/injection, schedule: Q07DX002 (ip), vehicle: other) 102 % of control; (endpoint: median tumor weight (est.), dose: 50.0 mg/kg/injection, schedule: Q07DX002 (ip), vehicle: other) 56 % of control; (endpoint: median tumor weight (est.), dose: 100.0 mg/kg/injection, schedule: Q07DX002 (ip), vehicle: other) 19 % of control.
As for `CCCCCCCCCCCCCCCCCCCCCC(=O)Nc1ccn(C2OC(CO)C(O)C2O)c(=O)n1` (stereo not drawn), the T/C under setting [1] is 83 % of control and the T/C under setting [2] was 35 % of control.
For `Oc1cccc2ccccc12`, the T/C runs as follows: (endpoint: median tumor weight (est.), dose: 50.0 mg/kg/injection, schedule: Q07DX002 (ip), vehicle: water) 91 % of control; (endpoint: median tumor weight (est.), dose: 100.0 mg/kg/injection, schedule: Q07DX002 (ip), vehicle: water) 87 % of control; (endpoint: median tumor weight (est.), dose: 200.0 mg/kg/injection, schedule: Q07DX002 (ip), vehicle: water) 76 % of control.
Consider `O=C(O)C(O)C(O)C1[O][Sb][O]C1C(=O)O` (stereo not drawn), for which the T/C runs as follows: (endpoint: median tumor weight (est.), dose: 12.5 mg/kg/injection, schedule: Q07DX002 (ip), vehicle: saline) 76 % of control; (endpoint: median tumor weight (est.), dose: 25.0 mg/kg/injection, schedule: Q07DX002 (ip), vehicle: saline) 84 % of control; (endpoint: median tumor weight (est.), dose: 50.0 mg/kg/injection, schedule: Q07DX002 (ip), vehicle: saline) 123 % of control; (endpoint: median tumor weight (est.), dose: 100.0 mg/kg/injection, schedule: Q07DX002 (ip), vehicle: saline) 107 % of control.
Turning to `S=P(N1CC1)(N1CC1)N1CC1`, the T/C (endpoint: median tumor weight (est.), dose: 3.0 mg/kg/injection, schedule: Q07DX003 (ip), vehicle: saline) is 58 % of control; the T/C (endpoint: median tumor weight (est.), dose: 6.0 mg/kg/injection, schedule: Q07DX003 (ip), vehicle: saline) is 57 % of control; the T/C (endpoint: median tumor weight (est.), dose: 12.0 mg/kg/injection, schedule: Q07DX003 (ip), vehicle: saline) was 23 % of control.
On to `COc1nc(C(Cl)(Cl)Cl)c(Cl)c(OC)c1Cl`, for which the T/C under setting [3] was 103 % of control, the T/C under setting [4] is 109 % of control, the T/C under setting [5] is 104 % of control and the T/C under setting [6] is 47 % of control.
Take `NC(CSC(c1ccccc1)(c1ccccc1)c1ccccc1)C(=O)O` (stereo not drawn): the T/C is 87 % of control (endpoint: median tumor weight (est.), dose: 32.0 mg/kg/injection, schedule: Q07DX002 (ip), vehicle: saline with Tween-80); 46 % of control (endpoint: median tumor weight (est.), dose: 32.0 mg/kg/injection, schedule: Q07DX003 (ip), vehicle: saline with Tween-80); 81 % of control (endpoint: median tumor weight (est.), dose: 64.0 mg/kg/injection, schedule: Q07DX002 (ip), vehicle: saline with Tween-80); 105 % of control (endpoint: median tumor weight (est.), dose: 64.0 mg/kg/injection, schedule: Q07DX003 (ip), vehicle: saline with Tween-80); 63 % of control (endpoint: median tumor weight (est.), dose: 128.0 mg/kg/injection, schedule: Q07DX002 (ip), vehicle: saline with Tween-80); 72 % of control (endpoint: median tumor weight (est.), dose: 128.0 mg/kg/injection, schedule: Q07DX003 (ip), vehicle: saline with Tween-80). Besides, the T/C by setting is: (endpoint: median tumor weight (est.), dose: 256.0 mg/kg/injection, schedule: Q07DX002 (ip), vehicle: saline with Tween-80) 30 % of control; (endpoint: median tumor weight (est.), dose: 256.0 mg/kg/injection, schedule: Q07DX003 (ip), vehicle: saline with Tween-80) 45 % of control; (endpoint: median tumor weight (est.), dose: 512.0 mg/kg/injection, schedule: Q07DX002 (ip), vehicle: saline with Tween-80) 2 % of control.
As to `O.O.[NH-]C1CCCCC1[NH-].[Pt+2]` (stereo not drawn), the T/C is, setting by setting: (endpoint: median tumor weight (est.), dose: 10.0 mg/kg/injection, schedule: Q07DX002 (ip), vehicle: dextrose) 72 % of control; (endpoint: median tumor weight (est.), dose: 20.0 mg/kg/injection, schedule: Q07DX002 (ip), vehicle: dextrose) 60 % of control; (endpoint: median tumor weight (est.), dose: 40.0 mg/kg/injection, schedule: Q07DX002 (ip), vehicle: dextrose) 29 % of control; (endpoint: median tumor weight (est.), dose: 80.0 mg/kg/injection, schedule: Q07DX002 (ip), vehicle: dextrose) 16 % of control and 17 % of control.
In the case of `Cn1cc(C2NC(=O)c3ccccc3N2)c2ccccc21` (stereo not drawn), the T/C under setting [3] is 46 % of control; the T/C under setting [4] was 244 % of control; the T/C under setting [5] is 42 % of control and 63 % of control; the T/C under setting [6] is 151 % of control; the T/C (endpoint: median tumor weight (est.), dose: 1600.0 mg/kg/injection, schedule: Q07DX002 (ip), vehicle: Klucel (hydroxypropylcellulose) (HPC)) was 96 % of control.
As for `OC(CBr)C(O)C(O)C(O)CBr` (stereo not drawn), the T/C was 83 % of control (endpoint: median tumor weight (est.), dose: 25.0 mg/kg/injection, schedule: Q07DX002 (ip), vehicle: Klucel (hydroxypropylcellulose) (HPC)) and 83 % of control under setting [3].
Regarding `OCC1OC(n2cnc3c(=S)nc[nH]c32)C(O)C1O` (stereo not drawn), the T/C runs as follows: (endpoint: median tumor weight (est.), dose: 250.0 mg/kg/injection, schedule: Q07DX002 (ip), vehicle: suspension in saline) 74 % of control; (endpoint: median tumor weight (est.), dose: 500.0 mg/kg/injection, schedule: Q07DX002 (ip), vehicle: suspension in saline) 31 % of control; (endpoint: median tumor weight (est.), dose: 1000.0 mg/kg/injection, schedule: Q07DX002 (ip), vehicle: suspension in saline) 41 % of control.
As for `O=C(O)CC(=O)O.[NH-]CC[NH-].[Pt+2]`, the T/C (endpoint: median tumor weight (est.), dose: 28.13 mg/kg/injection, schedule: Q07DX002 (ip), vehicle: dextrose) was 59 % of control and the T/C (endpoint: median tumor weight (est.), dose: 56.25 mg/kg/injection, schedule: Q07DX002 (ip), vehicle: dextrose) is 81 % of control.
In the case of `Nc1nc(-c2ccccc2)c(Br)c(=O)[nH]1`, the T/C is 115 % of control under setting [2] and 87 % of control under setting [7].
For `O=S(=O)([O-])c1ccc(-c2c3nc(c(-c4ccc(S(=O)(=O)[O-])cc4)c4ccc([n-]4)c(-c4ccc(S(=O)(=O)[O-])cc4)c4nc(c(-c5ccc(S(=O)(=O)[O-])cc5)c5ccc2[n-]5)C=C4)C=C3)cc1.[Mn+3].[Na+]`, the T/C is, setting by setting: (endpoint: median tumor weight change, dose: 226.9 mg/kg/injection, schedule: Q07DX002 (iv), vehicle: water) 67 % of control; (endpoint: median tumor weight change, dose: 340.9 mg/kg/injection, schedule: Q07DX002 (iv), vehicle: water) 77 % of control; (endpoint: median tumor weight change, dose: 515.0 mg/kg/injection, schedule: Q07DX002 (iv), vehicle: water) 110 % of control.
For the compound `CCN(CC)CCOC(=O)Cc1cc(OC)cc2c(=O)cc(-c3ccccc3)oc12`, the T/C reads like this: under setting [5], 37 % of control; under setting [6], 73 % of control.
For `CCN(CC)c1ccc2[nH]c3c(C(N)=O)cc(=O)c(=O)c=3oc2c1`, the T/C reads like this: under setting [1], 93 % of control; under setting [2], 99 % of control; under setting [7], 93 % of control.
With `O=c1[nH]cnc2[nH]ncc12`, the T/C by setting is: (endpoint: median tumor weight (est.), dose: 25.0 mg/kg/injection, schedule: Q07DX002 (ip), vehicle: suspension in saline) 83 % of control; under setting [8], 69 % of control; under setting [9], 88 % of control.
As to `COC(=O)Nc1nc2ccc(SC)cc2c(=O)[nH]1`, the T/C by setting is: under setting [3], 117 % of control; under setting [5], 84 % of control; under setting [6], 109 % of control.
Consider `CCCCCCCCCCCCCCCCCC(=O)Nc1ccn(C2OC(CO)C(O)C2O)c(=O)n1` (stereo not drawn), for which the T/C was 64 % of control (endpoint: median tumor weight (est.), dose: 12.5 mg/kg/injection, schedule: Q07DX002 (ip), vehicle: saline with Tween-80); 40 % of control (endpoint: median tumor weight (est.), dose: 25.0 mg/kg/injection, schedule: Q07DX002 (ip), vehicle: saline with Tween-80); 49 % of control (endpoint: median tumor weight (est.), dose: 50.0 mg/kg/injection, schedule: Q07DX002 (ip), vehicle: saline with Tween-80); 23 % of control under setting [1].
As for `O=C1CC2(C(=O)N1CN1CCOCC1)c1ccccc1-c1ccccc12`, the T/C runs as follows: under setting [3], 99 % of control; under setting [4], 44 % of control; under setting [5], 107 % of control; under setting [6], 79 % of control; (endpoint: median tumor weight (est.), dose: 800.0 mg/kg/injection, schedule: Q07DX002 (ip), vehicle: Klucel (hydroxypropylcellulose) (HPC)) 56 % of control.
As for `O=C(Cc1cccc2c(=O)cc(-c3ccccc3)oc12)OCCN1CCOCC1`, the T/C runs as follows: under setting [8], 70 % of control; under setting [9], 49 % of control; (endpoint: median tumor weight (est.), dose: 200.0 mg/kg/injection, schedule: Q07DX002 (ip), vehicle: suspension in saline) 68 % of control; (endpoint: median tumor weight (est.), dose: 300.0 mg/kg/injection, schedule: Q07DX002 (ip), vehicle: suspension in saline) 17 % of control.
Take `CC(=O)N(C)O`: the T/C is, setting by setting: under setting [1], 124 % of control; under setting [2], 116 % of control; under setting [7], 91 % of control; (endpoint: median tumor weight (est.), dose: 800.0 mg/kg/injection, schedule: Q07DX002 (ip), vehicle: saline with Tween-80) 101 % of control.
